Measured values published in patent US5288709A, “Erythromycin derivatives” (priority 1991, dated 1994).
≈ marks a conversion by molar mass, not a printed value. Where two headings read alike, the source gives them in different places.

What was measured:
Acinetobacter SP CMX 669 = assay: In-vitro antimicrobial activity primary screen (agar dilution MIC); format: cell-based; settings: Acinetobacter, SPCMX669, 24 h
Procedure, shortened: (§1)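 Steps: prepare 12 BHI agar plates with serial aqueous dilutions; inoculate with 1:100 dilutions (1:10 for Streptococcus and other slow growers); incubate 35-37° C, 20-24 h; score MIC as lowest concentration with no growth, slight haze or isolated colonies.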

[1] = test system: Enterobacter aerogenes ATCC 13048; assay: as above; format: cell-based; settings: Klebsiella aerogenes, ATCC13048; Enterobacter aerogenes ATCC 13048; BHI agar, 20-24 h; read-out: MIC
Procedure, shortened: as §1

[2] = test system: Enterococcus faecium ATCC 8043; assay: as above; format: cell-based; settings: Enterococcus faecium, ATCC8043, 24 h
Procedure, shortened: as §1

Escherichia coli DC-2 = assay: as above; format: cell-based; settings: DC2; Escherichia coli DC-2; BHI agar, 20-24 h; read-out: MIC
Procedure, shortened: as §1

Escherichia coli H560 = assay: as above; format: cell-based; settings: Escherichia coli H560; BHI agar, 20-24 h; read-out: MIC
Procedure, shortened: as §1

Escherichia coli JUHL = assay: as above; format: cell-based; settings: Escherichia coli JUHL; BHI agar, 20-24 h; read-out: MIC
Procedure, shortened: as §1

Escherichia coli SS = assay: as above; format: cell-based; settings: BHI agar, 20-24 h
Procedure, shortened: as §1

[3] = test system: Klebsiella pneumoniae ATCC 8045; assay: as above; format: cell-based; settings: Klebsiella pneumoniae ATCC 8045, BHI agar, 20-24 h
Procedure, shortened: as §1

[4] = test system: Micrococcus luteus ATCC 4698; assay: as above; format: cell-based; settings: Micrococcus luteus, ATCC4698, 24 h, BHI agar, 20-24 h
Procedure, shortened: as §1

[5] = test system: Micrococcus luteus ATCC 9341; assay: as above; format: cell-based; settings: 20-24 h
Procedure, shortened: as §1

[6] = test system: Providencia stuartii CMX 640; assay: as above; format: cell-based; settings: CMX640; Providencia stuartii CMX 640; BHI agar, 20-24 h; read-out: MIC
Procedure, shortened: as §1

[7] = test system: Pseudomonas aeruginosa A5007; assay: as above; format: cell-based; settings: Pseudomonas aeruginosa A5007; BHI agar, 20-24 h; read-out: MIC
Procedure, shortened: as §1

[8] = test system: Pseudomonas aeruginosa BMH10; assay: as above; format: cell-based; settings: BHI agar, 20-24 h, read-out: MIC
Procedure, shortened: as §1

[9] = test system: Pseudomonas aeruginosa K799/61; assay: as above; format: cell-based; settings: Pseudomonas aeruginosa K799/61, BHI agar, 20-24 h
Procedure, shortened: as §1

[10] = test system: Pseudomonas aeruginosa K799/WT; assay: as above; format: cell-based; settings: Pseudomonas aeruginosa K799/WT; BHI agar, 20-24 h; read-out: MIC
Procedure, shortened: as §1

Pseudomonas cepacia 2961 = assay: as above; format: cell-based; settings: Burkholderia cepacia, BHI agar, 20-24 h, read-out: MIC
Procedure, shortened: as §1

[11] = test system: Staphylococcus aureus 45 RAR2; assay: as above; format: cell-based; settings: Staphylococcus aureus, 45RAR2, 24 h, BHI agar, 20-24 h
Procedure, shortened: as §1

Staphylococcus aureus 45 = assay: as above; format: cell-based; settings: BHI agar, 20-24 h, read-out: MIC
Procedure, shortened: as §1

[12] = test system: Staphylococcus aureus A5177; assay: as above; format: cell-based; settings: Staphylococcus aureus A5177, BHI agar, 20-24 h
Procedure, shortened: as §1

[13] = test system: Staphylococcus aureus ATCC 6538P; assay: as above; format: cell-based; settings: Staphylococcus aureus, ATCC6538P, 24 h, BHI agar, 20-24 h
Procedure, shortened: as §1

[14] = test system: Staphylococcus epidermidis 3519; assay: as above; format: cell-based; settings: BHI agar, 20-24 h, read-out: MIC
Procedure, shortened: as §1

[15] = test system: Streptococcus agalactiae CMX 508; assay: as above; format: cell-based; settings: 20-24 h
Procedure, shortened: as §1

[16] = test system: Streptococcus bovis A5169; assay: as above; format: cell-based; settings: Streptococcus equinus, BHI agar, 20-24 h, read-out: MIC
Procedure, shortened: as §1

[17] = test system: Streptococcus pyrogenes 2548 INDUC; assay: as above; format: cell-based; settings: BHI agar, 20-24 h
Procedure, shortened: as §1

[18] = test system: Streptococcus pyrogenes EES61; assay: as above; format: cell-based; settings: BHI agar, 20-24 h
Procedure, shortened: as §1

[19] = test system: Streptococcus pyogenes C-203; assay: In-vivo acute mouse protection assay; parameters: species or system Streptococcus pyogenes; female Swiss albino mice; settings: dosed 1 and 5 h post-infection, observed 7 days
Description: An acute mouse protection test was conducted on ten mice with each of three concentrations of selected compounds of the invention. Each concentration was a four-fold dilution of the previous concentration. The initial concentration will vary with the microorganism with which the mouse is challenged.
The acute mouse protection test was conducted on female, Swiss albino mice, 18-20 grams in weight. […] To check the potency of the inoculum, a titration of the indicated test organism was carried out in control animals. The titration determines the LD50 for a particular microorganism. The treatment groups of animals were dosed orally, by gavage, or subcutaneously with the test compounds at 1 and 5 hours post-infection and observed for 7 days. The ED50 were calculated using the mortality data collected.

[20] = Pharmacokinetic evaluation in dogs after a 10 mg/kg dose; settings: dog, plasma; for half-life: t1/2 (biological half life); for bioavailability: % ABS (percent absorbance), from AUC (absolute bioavailability); for Cmax: Cmax (maximum concentration in blood); for Tmax: Tmax (time to achieve maximum concentration in blood)
[21] = iv, IV 10 mg/kg, HPLC (parent drug)
[22] = iv, IV 10 mg/kg, microbiological assay
[23] = po, oral 10 mg/kg, HPLC (parent drug)
[24] = po, oral 10 mg/kg, microbiological assay

Compound | MIC [1] [µg/mL] | MIC [2] [µg/mL] | MIC (Escherichia coli DC-2) [µg/mL] | MIC (Escherichia coli H560) [µg/mL] | MIC (Escherichia coli JUHL) [µg/mL] | MIC [4] [µg/mL] | MIC [6] [µg/mL] | MIC [7] [µg/mL] | MIC [8] [µg/mL] | MIC [10] [µg/mL] | MIC (Pseudomonas cepacia 2961) [µg/mL] | MIC [11] [µg/mL] | MIC (Staphylococcus aureus 45) [µg/mL] | MIC [13] [µg/mL] | MIC [14] [µg/mL] | MIC [16] [µg/mL] | ED50 ([19]; C203, 168 h, oral) [mg/kg] | ED50 ([19]; C203, sc, 168 h, subcutaneous) [mg/kg] | half-life [20, 21] [h] | half-life [20, 22] [h] | also measured
CC[C@H]1OC(=O)[C@H](C)[C@@H](O[C@H]2C[C@@](C)(OC)[C@@H](O)[C@H](C)O2)[C@H](C)[C@@H](O[C@@H]2O[C@H](C)C[C@H](N(C)C)[C@H]2O)[C@](C)(O)C[C@@H](C)[C@@H]2O[C@@]1(C)C(=O)[C@H]2C [Example 5, (9S)-9-Deoxo-11,12-dideoxy-9,12-epoxy-11-oxoerythromycin A] | > 100 | 0.1 (≈ 0.14 µM) | > 100 | 100 (≈ 140 µM) | 100 (≈ 140 µM) | 0.1 (≈ 0.14 µM) | > 100 | > 100 | 100 (≈ 140 µM) | 100 (≈ 140 µM) | 100 (≈ 140 µM) | 0.2 (≈ 0.279 µM) | 0.1 (≈ 0.14 µM) | 0.39 (≈ 0.545 µM) | 0.2 (≈ 0.279 µM) | 0.1 (≈ 0.14 µM) | 3.9 | 1.7 | 12.2 | 14.7 | MIC (Acinetobacter SP CMX 669; Acinetobacter SP CMX 669, BHI agar, 20-24 h): 12.5 µg/mL (≈ 17.5 µM); MIC (Escherichia coli SS; Escherichia coli, 24 h): 0.2 µg/mL (≈ 0.279 µM); MIC ([3]; ATCC8045, read-out: MIC): > 100 µg/mL; MIC ([5]; Micrococcus luteus, ATCC9341, 24 h, BHI agar): < 0.05 µg/mL; MIC ([9]; Pseudomonas aeruginosa, K799/61, 24 h): 1.56 µg/mL (≈ 2.18 µM); MIC ([12]; Staphylococcus aureus, A5177, 24 h): 3.1 µg/mL (≈ 4.33 µM); MIC ([15]; Streptococcus agalactiae, CMX508, 24 h, BHI agar): 0.1 µg/mL (≈ 0.14 µM); MIC ([17]; read-out: MIC): 1.56 µg/mL (≈ 2.18 µM); MIC ([18]; Streptococcus, EES61, 24 h): < 0.05 µg/mL; bioavailability [20, 23]: 81%; bioavailability [20, 24]: 76%; Cmax [20, 23]: 2500 ng/mL; Cmax [20, 24]: 2500 ng/mL; Tmax [20, 23]: 4 h; half-life [20, 23]: 10.2 h; half-life [20, 24]: 10.5 h
CC[C@H]1OC(=O)[C@H](C)[C@@H](O[C@H]2C[C@@](C)(OC)[C@@H](O)[C@H](C)O2)[C@H](C)[C@@H](O[C@@H]2O[C@H](C)C[C@H](N(C)C)[C@H]2O)[C@](C)(O)C[C@@H](C)[C@@H]2O[C@@]1(C)[C@@H](N)[C@H]2C [Example 19, (9S,11S)-11-Amino-9-deoxo-11,12-deoxy-9,12-epoxyerythromycin A] | 100 (≈ 139 µM) | 0.05 (≈ 0.0697 µM) | 50 (≈ 69.7 µM) | 6.2 (≈ 8.65 µM) | > 100 | 0.1 (≈ 0.139 µM) | > 100 | > 100 | 50 (≈ 69.7 µM) | 100 (≈ 139 µM) | > 100 | 0.39 (≈ 0.544 µM) | 0.2 (≈ 0.279 µM) | 0.2 (≈ 0.279 µM) | 0.2 (≈ 0.279 µM) | 0.1 (≈ 0.139 µM) | 28.9 | 2.5 | 7.5 | 6.6 | MIC (Acinetobacter SP CMX 669): 1.56 µg/mL (≈ 2.18 µM); MIC (Escherichia coli SS; read-out: MIC): 0.78 µg/mL (≈ 1.09 µM); MIC ([3]; Klebsiella pneumoniae, ATCC8045, 24 h): 25 µg/mL (≈ 34.9 µM); MIC ([5]; ATCC9341, BHI agar, read-out: MIC): 0.01 µg/mL (≈ 0.0139 µM); MIC ([9]; read-out: MIC): 0.78 µg/mL (≈ 1.09 µM); MIC ([12]; read-out: MIC): 0.39 µg/mL (≈ 0.544 µM); MIC ([15]; CMX508, BHI agar, read-out: MIC): 0.02 µg/mL (≈ 0.0279 µM); MIC ([17]; Streptococcus, 2548INDUC, 24 h): 3.1 µg/mL (≈ 4.32 µM); MIC ([18]; read-out: MIC): < 0.005 µg/mL; bioavailability [20, 23]: 59%; bioavailability [20, 24]: 67%; Cmax [20, 23]: 3200 ng/mL; Cmax [20, 24]: 3300 ng/mL; Tmax [20, 23]: 0.25 h; Tmax [20, 24]: 0.4 h; half-life [20, 23]: 8.1 h; half-life [20, 24]: 5.8 h
